pIC50: −log10 of the molar value.
These compounds were tested on U87MG cells (assay: Cellular assay, inhibition of 2-HG production in U87MG cells). Conditions: Homo sapiens, U-87 MG, 48 h.
Format: cell-based
Description: Cells (HT1080 or U87MG) are grown in T125 flasks in DMEM containing 10% FBS, 1× penicillin/streptomycin and 500 ug/mL G418 (present in U87MG cells only). They are harvested by trypsin and seeded into 96 well white bottom plates at a density of 5000 cell/well in 100 ul/well in DMEM with 10% FBS. […] Cells are incubated overnight at 37° C. in 5% CO2. The next day test compounds are made up at 2× the final concentration and 100 ul are added to each cell well. The final concentration of DMSO is 0.2% and the DMSO control wells are plated in row G. The plates are then placed in the incubator for 48 hours. […] The cell plate is placed back in the incubator for another 24 hours. At 72 hours post compound addition, 10 mL/plate of Promega Cell Titer Glo reagent is thawed and mixed. The cell plate is removed from the incubator and allowed to equilibrate to room temperature. Then 100 ul of Promega Cell Titer Glo reagent is added to each well of media. The cell plate is then placed on an orbital shaker for 10 minutes and then allowed to sit at room temperature for 20 minutes. The plate is then read for luminescence with an integration time of 500 ms.

Compound | pIC50
N#Cc1ccnc(N2C(=O)[C@H](O)C[C@H]2C(=O)N(c2cccc(F)c2)[C@H](C(=O)NC2CC(F)(F)C2)c2ccccc2Cl)n1 [Compound 120, (2S,4R)—N—((S)-1-(2-Chlorophenyl)-2-((3,3-difluorocyclobutyl)amino)-2-oxoethyl)-1-(4-cyanopyrimidin-2-yl)-N-(3-fluorophenyl)-4-hydroxy-5-oxopyrrolidine-2-carboxamide] | 6.30 to 7.00
COc1cccc(N(C(=O)[C@@H]2CCC(=O)N2c2cc(C#N)ccn2)[C@H](C(=O)NC2CC(F)(F)C2)c2ccccc2Cl)c1 [Compound 129, (S)—N—((S)-1-(2C)-2-((3,3-difluorocyclobutyl)amino)-2-oxoethyl)-1-(4-cyanopyridin-2-yl)-N-(3-methoxyphenyl)-5-oxopyrrolidine-2-carboxamide] | > 7.00
N#Cc1ccnc(N2C(=O)CC[C@H]2C(=O)N(c2ccc3[nH]ncc3c2)[C@H](C(=O)NC2CC(F)(F)C2)c2ccccc2Cl)c1 [Compound 175, (S)—N—((S)-1-(2-Chlorophenyl)-2-((3,3-difluorocyclobutyl)amino)-2-oxoethyl)-1-(4-cyanopyri-din-2-yl)-N-(1H-indazol-5-yl)-5-oxopyrrolidine-2-carboxamide] | > 7.00
N#Cc1cccc(N(C(=O)[C@@H]2CCC(=O)N2c2nccc(C#N)n2)[C@H](C(=O)NC2CC(F)(F)C2)c2ccccc2Cl)c1 [Compound 167, (S)—N—((S)-1-(2-Chlorophenyl)-2-((3,3-difluorocyclobutyl)amino)-2-oxoethyl)-N-(3-cyanophenyl)-1-(4-cyanopyrimidin-2-yl)-5-oxopyrrolidine-2-carboxamide] | > 7.00
O=C(NC1CC(F)(F)C1)[C@H](c1ccccc1Cl)N(C(=O)[C@@H]1COCC(=O)N1c1ncccn1)c1cccc(F)c1 [Compound 30, (S)—N—((S)-1-(2-chlorophenyl)-2-((3,3-difluorocyclobutyl)amino)-2-oxoethyl)-N-(3-fluorophenyl)-5-oxo-4-(pyrimidin-2-yl)morpholine-3-carboxamide] | 6.30 to 7.00
N#Cc1ccnc(N2C(=O)CC[C@H]2C(=O)N(c2cccc3[nH]cnc23)C(C(=O)NC2CCC(F)(F)CC2)c2ccccc2Cl)c1 (stereo partly drawn) [Compound 141, (2S)—N-(1H-benzo[d]imidazol-7-yl)-N-(1-(2-chlorophenyl)-2-((4,4-difluorocyclohexyl)amino)-2-oxoethyl)-1-(4-cyanopyridin-2-yl)-5-oxopyrrolidine-2-carboxamide] | > 7.00
N#Cc1ccnc(N2C(=O)[C@@H](O)C[C@H]2C(=O)N(c2cccc(F)c2)[C@H](C(=O)NC2CCC(F)(F)CC2)c2ccccc2Cl)c1 [Compound 172, (2S,4S)—N—((S)-1-(2-Chlorophenyl)-2-((4,4-difluorocyclohexyl)amino)-2-oxoethyl)-1-(4-cyano-pyridin-2-yl)-N-(3-fluorophenyl)-4-hydroxy-5-oxopyrrolidine-2-carboxamide] | > 7.00
CC(=O)N1CC(=O)N(c2cc(C#N)ccn2)[C@H](C(=O)N(c2cccc(F)c2)[C@H](C(=O)NC2CC(F)(F)C2)c2ccccc2Cl)C1 [Compound 92, (S)-4-Acetyl-N—((S)-1-(2-chlorophenyl)-2-(3,3-difluorocyclobutylamino)-2-oxoethyl)-1-(4-cyanopyridin-2-yl)-N-(3-fluorophenyl)-6-oxopiperazine-2-carboxamide] | > 7.00
N#Cc1ccnc(N2C(=O)CC[C@H]2C(=O)N(c2cncc(F)c2)[C@H](C(=O)NC2CC(F)(F)C2)c2ccccc2F)c1 [Compound 148, (S)-1-(4-Cyanopyridin-2-yl)-N—((S)-2-((3,3-difluorocyclobutyl)amino)-1-(2-fluorophenyl)-2-oxoethyl)-N-(5-fluoropyridin-3-yl)-5-oxopyrrolidine-2-carboxamide] | > 7.00
N#Cc1ccnc(N2C(=O)[C@H](O)C[C@H]2C(=O)N(c2cc(F)cc(F)c2)[C@@H](C(=O)NC2CCC(F)(F)CC2)c2ccccc2Cl)n1 [Compound 126, (2S,4R)—N—((R)-1-(2-Chlorophenyl)-2-(4,4-difluorocyclohexylamino)-2-oxoethyl)-1-(4-cyanopyrimidin-2-yl)-N-(3,5-difluorophenyl)-4-hydroxy-5-oxopyrrolidine-2-carboxamide] | 6.30 to 7.00
CN(C)c1cccc(N(C(=O)[C@@H]2CCC(=O)N2c2cc(C#N)ccn2)[C@H](C(=O)NC2CC(F)(F)C2)c2ccccc2Cl)c1 [Compound 161, (S)—N—((S)-1-(2-Chlorophenyl)-2-(3,3-difluorocyclobutylamino)-2-oxoethyl)-1-(4-cyanopyri-din-2-yl)-N-(3-(dimethylamino)phenyl)-5-oxopyrrolidine-2-carboxamide] | > 7.00
O=C(NC1CC(F)(F)C1)C(c1c(Cl)cccc1Cl)N(C(=O)[C@@H]1CCC(=O)N1c1ncccn1)c1cccc(F)c1 (stereo partly drawn) [Compound 51] | 6.30 to 7.00
O=C(NC1CCC(F)(F)CC1)[C@H](c1ccccc1Cl)N(C(=O)[C@@H]1CCC(=O)N1c1cnccn1)c1cccc(F)c1 [Compound 58, (S)—N—((S)-1-(2-Chlorophenyl)-2-(4,4-difluorocyclohexylamino)-2-oxoethyl)-N-(3-fluorophenyl)-5-oxo-1-(pyrazin-2-yl)pyrrolidine-2-carboxamide] | > 7.00
O=C(NC1CC(F)(F)C1)C(c1ccccc1Cl)N(C(=O)[C@@H]1CCCC(=O)N1c1ncccn1)c1cccc(F)c1 (stereo in doubt) [Compound 20, (S)—N—((R)-1-(2-Chloro-phenyl)-2-((3,3-difluorocyclobutyl)amino)-2-oxoethyl)-N-(3-fluoro-phenyl)-6-oxo-1-(pyrimidin-2-yl)piperidine-2-carboxamide] | 6.30 to 7.00

Continued, values first:

pIC50 | Compound
> 7.00 | N#Cc1cc(F)cc(N(C(=O)[C@@H]2CCC(=O)N2c2cc(C#N)ccn2)[C@H](C(=O)NC2CC(F)(F)C2)c2ccccc2F)c1 [Compound 207, (S)—N-(3-Cyano-5-fluorophenyl)-1-(4-cyanopyridin-2-yl)-N—((S)-2-((3,3-difluorocyclobutyl)amino)-1-(2-fluorophenyl)-2-oxoethyl)-5-oxopyrrolidine-2-carboxamide]
> 7.00 | N#Cc1ccnc(N2C(=O)[C@H](O)C[C@H]2C(=O)N(c2cc(F)cc(F)c2)[C@H](C(=O)NC2CC(F)(F)C2)c2ccccc2Cl)n1 [Compound 117, (2S,4R)—N—((S)-1-(2-Chlorophenyl)-2-((3,3-difluorocyclobutyl)amino)-2-oxoethyl)-1-(4-cyanopyrimidin-2-yl)-N-(3,5-difluorophenyl)-4-hydroxy-5-oxopyrrolidine-2-carboxamide]
> 7.00 | N#Cc1ccnc(N2C(=O)OCC[C@H]2C(=O)N(c2cc(F)cc(F)c2)[C@H](C(=O)NC2CCC(F)(F)CC2)c2ccccc2Cl)c1 [Compound 139, (S)—N—((S)-1-(2-Chlorophenyl)-2-((4,4-difluorocyclohexyl)amino)-2-oxoethyl)-3-(4-cyanopyridin-2-yl)-N-(3,5-difluorophenyl)-2-oxo-1,3-oxazinane-4-carboxamide]
> 7.00 | N#Cc1ccnc(N2C(=O)CC[C@H]2C(=O)N(c2cccc(F)c2)[C@H](C(=O)NC2CC(F)(F)C2)c2ccccc2Cl)c1 [Compound 37]
> 7.00 | N#Cc1ccnc(N2C(=O)[C@H](O)C[C@H]2C(=O)N(c2cc(F)cc(F)c2)[C@@H](C(=O)NC2CC(F)(F)C2)c2ccccc2Cl)c1 [Compound 114, (2S,4R)—N—((R)-1-(2-Chlorophenyl)-2-((3,3-difluorocyclobutyl)amino)-2-oxoethyl)-1-(4-cyanopyridin-2-yl)-N-(3,5-difluorophenyl)-4-hydroxy-5-oxopyrrolidine-2-carboxamide]
> 7.00 | N#Cc1ccnc(N2C(=O)CNC[C@H]2C(=O)N(c2cc(F)cc(F)c2)[C@H](C(=O)NC2CC(F)(F)C2)c2ccccc2Cl)n1 [Compound 99, (S)—N—((S)-1-(2-chlorophenyl)-2-((3,3-difluorocyclobutyl)amino)-2-oxoethyl)-1-(4-cyanopyrimidin-2-yl)-N-(3,5-difluorophenyl)-6-oxopiperazine-2-carboxamide]
> 7.00 | CCOC(=O)CN1CC(=O)N(c2cc(C#N)ccn2)[C@H](C(=O)N(c2cc(F)cc(F)c2)[C@H](C(=O)NC2CC(F)(F)C2)c2ccccc2Cl)C1 [Compound 104]
> 7.00 | N#Cc1ccnc(N2C(=O)CC[C@H]2C(=O)N(c2cccc(F)c2F)[C@H](C(=O)NC2CC(F)(F)C2)c2ccccc2Cl)c1 [Compound 188, (S)—N—((S)-1-(2-Chlorophenyl)-2-((3,3-difluorocyclobutyl)amino)-2-oxoethyl)-1-(4-cyanopyridin-2-yl)-N-(2,3-difluorophenyl)-5-oxopyrrolidine-2-carboxamide]
> 7.00 | N#Cc1cc(F)cc(N(C(=O)[C@@H]2CCC(=O)N2c2cc(C#N)ccn2)[C@H](C(=O)NC2CC(F)(F)C2)c2ccccc2Cl)c1 [Compound 177, (S)—N—((S)-1-(2-Chlorophenyl)-2-(3,3-difluorocyclobutylamino)-2-oxoethyl)-N-(3-cyano-5-fluorophenyl)-1-(4-cyanopyridin-2-yl)-5-oxopyrrolidine-2-carboxamide]
> 7.00 | N#Cc1ccnc(N2C(=O)OCC[C@H]2C(=O)N(c2cc(F)cc(F)c2)[C@H](C(=O)NC2CC(F)(F)C2)c2ccccc2Cl)c1 [Compound 133, (S)—N—((S)-1-(2-Chlorophenyl)-2-((3,3-difluorocyclobutyl)amino)-2-oxoethyl)-3-(4-cyanopyridin-2-yl)-N-(3,5-difluorophenyl)-2-oxo-1,3-oxazinane-4-carboxamide]

From patent publication US10689414B2 (Agios Pharmaceuticals, Inc., priority 2013, dated 2020)
